HELM strings list units from the 5' end as sugar, base in round brackets, then linkage (d deoxyribose, r ribose, m 2'-O-methyl, p phosphodiester). Strings are as the collection lists them; they lack the last nucleoside at the 3' end of the tested compound. [moe] = 2'-O-(2-methoxyethyl) (MOE); [sp] = phosphorothioate linkage; [m5C] = 5-methylcytosine
Target: LRRK2
Test: mouse, dose not given
Settings: ASO

Row | Substance | 3 h FOB score [score 0-7]
1 | RNA1{[moe](A)[sp].[moe]([m5C])p.[moe](G)[sp].[moe]([m5C])[sp].[moe](A)[sp].d([m5C])[sp].d(T)[sp].d(T)[sp].d(A)[sp].d(A)[sp].d([m5C])[sp].d(A)[sp].d(A)[sp].d(T)[sp].d(A)[sp].[moe](T)[sp].[moe]([m5C])p.[moe](A)[sp].[moe](T)}$$$$ (last 3' nucleoside missing) | 1
2 | RNA1{[moe](G)[sp].[moe](G)p.[moe](A)p.[moe]([m5C])p.[moe](T)[sp].d(T)[sp].d([m5C])[sp].d([m5C])[sp].d(A)[sp].d([m5C])[sp].d(A)[sp].d(T)[sp].d(T)[sp].d(A)[sp].d(T)[sp].[moe](T)p.[moe](G)p.[moe]([m5C])[sp].[moe](A)}$$$$ (last 3' nucleoside missing) | 0
3 | RNA1{[moe]([m5C])[sp].[moe](A)p.[moe](A)[sp].[moe](G)[sp].[moe](T)[sp].d([m5C])[sp].d([m5C])[sp].d(A)[sp].d(A)[sp].d(A)[sp].d(T)[sp].d(G)[sp].d(T)[sp].d(G)[sp].d(T)[sp].[moe]([m5C])[sp].[moe](A)p.[moe](A)[sp].[moe](A)}$$$$ (last 3' nucleoside missing) | 7
4 | RNA1{[moe](G)[sp].[moe](T)p.[moe](T)[sp].[moe](T)[sp].[moe]([m5C])[sp].d(A)[sp].d(T)[sp].d(T)[sp].d([m5C])[sp].d(G)[sp].d(G)[sp].d(T)[sp].d(T)[sp].d(A)[sp].d(T)[sp].[moe](A)[sp].[moe](A)p.[moe](G)[sp].[moe](G)}$$$$ (last 3' nucleoside missing) | 7
5 | RNA1{[moe](T)[sp].[moe]([m5C])p.[moe](T)[sp].[moe](T)[sp].[moe]([m5C])[sp].d(A)[sp].d(G)[sp].d(T)[sp].d(T)[sp].d([m5C])[sp].d([m5C])[sp].d(T)[sp].d(T)[sp].d([m5C])[sp].d(A)[sp].[moe](G)[sp].[moe](T)p.[moe]([m5C])[sp].[moe](T)}$$$$ (last 3' nucleoside missing) | 3
6 | RNA1{[moe](T)[sp].[moe](T)p.[moe](G)[sp].[moe](G)[sp].[moe]([m5C])[sp].d(T)[sp].d(G)[sp].d(G)[sp].d(A)[sp].d(A)[sp].d(A)[sp].d(T)[sp].d(G)[sp].d(A)[sp].d(G)[sp].[moe](T)[sp].[moe](G)p.[moe]([m5C])[sp].[moe](A)}$$$$ (last 3' nucleoside missing) | 6
7 | RNA1{[moe](T)[sp].[moe](G)p.[moe]([m5C])p.[moe](T)p.[moe](G)[sp].d([m5C])[sp].d(T)[sp].d([m5C])[sp].d(A)[sp].d(T)[sp].d(A)[sp].d(T)[sp].d([m5C])[sp].d(T)[sp].d(A)[sp].[moe](A)p.[moe](A)p.[moe](G)[sp].[moe](A)}$$$$ (last 3' nucleoside missing) | 0
8 | RNA1{[moe](T)[sp].[moe](G)p.[moe]([m5C])[sp].[moe](T)[sp].[moe](G)[sp].d([m5C])[sp].d(T)[sp].d([m5C])[sp].d(A)[sp].d(T)[sp].d(A)[sp].d(T)[sp].d([m5C])[sp].d(T)[sp].d(A)[sp].[moe](A)[sp].[moe](A)p.[moe](G)[sp].[moe](A)}$$$$ (last 3' nucleoside missing) | 0
9 | RNA1{[moe](A)[sp].[moe](T)p.[moe](A)[sp].[moe](A)[sp].[moe](G)[sp].d(T)[sp].d(T)[sp].d(T)[sp].d([m5C])[sp].d(A)[sp].d(T)[sp].d(T)[sp].d([m5C])[sp].d(G)[sp].d(G)[sp].[moe](T)[sp].[moe](T)p.[moe](A)[sp].[moe](T)}$$$$ (last 3' nucleoside missing) | 4
10 | RNA1{[moe](A)[sp].[moe](T)p.[moe](T)p.[moe](G)p.[moe]([m5C])[sp].d(A)[sp].d(A)[sp].d(T)[sp].d(G)[sp].d(T)[sp].d(T)[sp].d(T)[sp].d([m5C])[sp].d(A)[sp].d(A)[sp].[moe](T)p.[moe](A)p.[moe](T)[sp].[moe](G)}$$$$ (last 3' nucleoside missing) | 1
11 | RNA1{[moe](A)[sp].[moe](G)p.[moe](T)p.[moe](G)p.[moe]([m5C])[sp].d(A)[sp].d(T)[sp].d(G)[sp].d(G)[sp].d([m5C])[sp].d(A)[sp].d(T)[sp].d([m5C])[sp].d(A)[sp].d(A)[sp].[moe](A)p.[moe](A)p.[moe](A)[sp].[moe](T)}$$$$ (last 3' nucleoside missing) | 1
12 | RNA1{[moe](A)[sp].[moe]([m5C])p.[moe]([m5C])p.[moe]([m5C])p.[moe](T)[sp].d(T)[sp].d(T)[sp].d([m5C])[sp].d([m5C])[sp].d(A)[sp].d(T)[sp].d(G)[sp].d(T)[sp].d(G)[sp].d(A)[sp].[moe](A)p.[moe]([m5C])p.[moe](A)[sp].[moe](T)}$$$$ (last 3' nucleoside missing) | 4
13 | RNA1{[moe](A)[sp].[moe](G)p.[moe](T)[sp].[moe](T)[sp].[moe]([m5C])[sp].d([m5C])[sp].d(T)[sp].d(T)[sp].d([m5C])[sp].d(A)[sp].d(G)[sp].d(T)[sp].d([m5C])[sp].d(T)[sp].d([m5C])[sp].[moe](A)p.[moe](A)p.[moe](G)[sp].[moe](G)}$$$$ (last 3' nucleoside missing) | 7
14 | RNA1{[moe]([m5C])[sp].[moe](G)p.[moe]([m5C])[sp].[moe](A)[sp].[moe]([m5C])[sp].d(T)[sp].d(T)[sp].d(A)[sp].d(A)[sp].d([m5C])[sp].d(A)[sp].d(A)[sp].d(T)[sp].d(A)[sp].d(T)[sp].[moe]([m5C])[sp].[moe](A)p.[moe](T)[sp].[moe](A)}$$$$ (last 3' nucleoside missing) | 1
15 | RNA1{[moe](G)[sp].[moe]([m5C])p.[moe]([m5C])[sp].[moe](A)[sp].[moe]([m5C])[sp].d(T)[sp].d(T)[sp].d(T)[sp].d([m5C])[sp].d(A)[sp].d(G)[sp].d([m5C])[sp].d([m5C])[sp].d(A)[sp].d([m5C])[sp].[moe](T)[sp].[moe](T)p.[moe]([m5C])[sp].[moe](A)}$$$$ (last 3' nucleoside missing) | 7
16 | RNA1{[moe]([m5C])[sp].[moe](A)p.[moe](T)p.[moe](A)p.[moe](A)[sp].d(G)[sp].d(T)[sp].d(T)[sp].d(T)[sp].d([m5C])[sp].d(A)[sp].d(T)[sp].d(T)[sp].d([m5C])[sp].d(G)[sp].[moe](G)p.[moe](T)p.[moe](T)[sp].[moe](A)}$$$$ (last 3' nucleoside missing) | 5
17 | RNA1{[moe](T)[sp].[moe](G)p.[moe](T)[sp].[moe]([m5C])[sp].[moe](A)[sp].d([m5C])[sp].d([m5C])[sp].d(T)[sp].d(T)[sp].d(T)[sp].d([m5C])[sp].d([m5C])[sp].d([m5C])[sp].d(A)[sp].d(A)[sp].[moe](T)[sp].[moe](G)p.[moe]([m5C])[sp].[moe](T)}$$$$ (last 3' nucleoside missing) | 5
18 | RNA1{[moe](T)[sp].[moe](T)p.[moe]([m5C])p.[moe](A)p.[moe](G)[sp].d(T)[sp].d(T)[sp].d([m5C])[sp].d([m5C])[sp].d(T)[sp].d(T)[sp].d([m5C])[sp].d(A)[sp].d(G)[sp].d(T)[sp].[moe]([m5C])p.[moe](T)p.[moe]([m5C])[sp].[moe](A)}$$$$ (last 3' nucleoside missing) | 4

Reference: the OligoGym collection
